The source of these data is patent publication US8748417B2, “Amino-pyrrolidine-azetidine diamides as monoacylglycerol lipase inhibitors” (Janssen Pharmaceutica, NV, priority 2010, dated 2014).

One may read the IC50 as the concentration needed to halve the response being measured.

Common to all, as to assay type: biochemical
For test [1], the system named is MGL (rat brain homogenate). The test is described as follows: 2-AG accumulation assay in rat brain homogenate. To be noted: percent of vehicle 2-AG accumulation; for Rat Brain 2AG % VehCntrl (%) @10 μM: compound 10 μM; for Rat Brain 2AG % VehCntrl (%) @1 μM: compound 1 μM. Summed up:
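Rat brain homogenate was incubated with compound for 15 min at 37° C., after which CaCl2 was added to a final concentration of 10 mM and incubation continued for 15 min at 37° C. in 5 mL total. Reactions were stopped with 6 mL of 2:1 chloroform/methanol, and 2-AG accumulated in the organic phase was quantified by HPLC/MS.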

Test [2] addresses T1, purified mutant MGL (mut-MGLL 11-313 L179S L186S) (Homo sapiens, UniProt Q99685, L169S/L176S).
T1 construct: purified mutant MGL (mut-MGLL 11-313 L179S L186S)
T1 sequence (Q99685 1-303 L169S/L176S): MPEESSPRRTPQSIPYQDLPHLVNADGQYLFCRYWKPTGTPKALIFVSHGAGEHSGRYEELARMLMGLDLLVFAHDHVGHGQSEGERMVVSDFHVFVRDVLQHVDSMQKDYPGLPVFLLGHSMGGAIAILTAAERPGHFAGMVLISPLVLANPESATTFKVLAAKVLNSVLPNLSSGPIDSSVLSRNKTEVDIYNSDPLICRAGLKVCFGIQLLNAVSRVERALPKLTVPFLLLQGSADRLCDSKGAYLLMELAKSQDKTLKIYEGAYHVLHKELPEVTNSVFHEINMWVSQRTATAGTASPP
The test is described as follows: MGL enzyme activity assay (4MU-B cleavage), mutant MGL. The following applies: mutant MGL 5 nM, 4MU-B 10 μM, 37° C.; read-out: MGL mutant inh IC50. The method, then: All rate-based assays were performed in black 384-well polypropylene PCR microplates (Abgene) in a total volume of 30 μL. Substrate 4-methylumbelliferyl butyrate (4MU-B; Sigma) and either purified mutant MGL (mut-MGLL 11-313 L179S L186S) or purified wild type MGL (wt-MGLL 6H-11-313) were diluted separately into 20 mM PIPES buffer (pH=7.0), containing 150 mM NaCl and 0.001% Tween 20. Compounds of Formula (I) were pre-dispensed (50 nL) into the assay plate using a Cartesian Hummingbird prior to adding 4MU-B (25 μL of 1.2× solution to a final concentration of 10 μM) followed by enzyme (5 μL of a 6× solution to a final concentration of 5 nM) to initiate the reaction. Final compound concentrations ranged from 17 to 0.0003 μM. The fluorescence change due to 4MU-B cleavage was monitored with excitation and emission wavelengths of 335 and 440 nm, respectively, and a bandwidth of 10 nm (Safire^2, Tecan) at 37° C. for 5 min.
The IC50 values for the following compounds were determined using Microsoft Office Excel from a fit of the equation to the concentration-response plot of the fractional activity as a function of inhibitor concentration.

Test [3] addresses T2, purified wild type MGL (wt-MGLL 6H-11-313) (Homo sapiens, UniProt Q99685).
T2 construct: purified wild type MGL (wt-MGLL 6H-11-313)
T2 sequence (Q99685 1-303): T1 sequence (Q99685 1-303 L169S/L176S) with S169L, S176L
The test is described as follows: MGL enzyme activity assay (4MU-B cleavage), wild type MGL. The following applies: wild type MGL 5 nM, 4MU-B 10 μM, 37° C.; read-out: MGL wild type inh IC50. Summed up: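 Enzyme in 20 mM PIPES pH 7.0, 150 mM NaCl, 0.001% Tween 20 with 4MU-B at 10 μM final and MGL at 5 nM final; compounds 17 to 0.0003 μM final, enzyme added last. Fluorescence (ex 335/em 440 nm) followed at 37° C for 5 min; IC50 from fit of fractional activity versus inhibitor concentration.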

Residue numbers refer to the chain shown, from its start.

On to `O=C(c1ccc(Cc2ccccc2)cc1)N1CC(N[C@H]2CCN(C(=O)c3nccs3)C2)C1` [Cpd 3, (3S)-N-{1-[(4-Benzylphenyl)carbonyl]azetidin-3-yl}-1-(1,3-thiazol-2-ylcarbonyl)pyrrolidin-3-amine], for which the “Rat Brain 2AG % VehCntrl (%) @10 μM” value in test [1] was 844%. Moreover, the IC50 in test [2] is 21.8 nM.
The corresponding values for `O=C(c1ccc(Cc2ccccc2)cc1)N1CC(N[C@H]2CCN(C(=O)c3ccccc3)C2)C1` [Cpd 4, (3S)-N-{1-[(4-Benzylphenyl)carbonyl]azetidin-3-yl}-1-(phenylcarbonyl)pyrrolidin-3-amine] are 1033% and 12 nM.
For `O=C(c1ccc(Cc2ccccc2)cc1)N1CC(N[C@H]2CCN(C(=O)c3ccsc3)C2)C1` [Cpd 5, (3S)-N-{1-[(4-Benzylphenyl)carbonyl]azetidin-3-yl}-1-(thiophen-3-ylcarbonyl)pyrrolidin-3-amine], in that order: 962% and less than 5 nM.
With `CN(C1CN(C(=O)c2ccc(Cc3ccccc3)cc2)C1)[C@H]1CCN(C(=O)c2ccccc2)C1` [Cpd 14, (3S)-N-{1-[(4-Benzylphenyl)carbonyl]azetidin-3-yl}-N-methyl-1-(phenylcarbonyl) pyrrolidin-3-amine], in test [1], the “Rat Brain 2AG % VehCntrl (%) @1 μM” value came out at 484%. Further, the half-maximal inhibitory concentration (IC50) in test [2] stood at 5 nM.
Consider `CN(C1CN(C(=O)c2ccc(-c3cccc(C(F)(F)F)c3)cc2)C1)[C@H]1CCN(C(=O)c2ccccc2)C1` [Cpd 15, (3S)-N-Methyl-1-(phenylcarbonyl)-N-(1-{[3′-(trifluoromethyl)biphenyl-4-yl]carbonyl}azetidin-3-yl)pyrrolidin-3-amine], for which, in test [1], the “Rat Brain 2AG % VehCntrl (%) @1 μM” value is listed as 649%. The concentration for half-maximal inhibition (IC50) stood at 26.5 nM in test [3] and 11.7 nM in test [2].
Regarding `O=C(c1ccc(-c2cc(Cl)cc(Cl)c2)cc1)N1CC(N[C@H]2CCN(C(=O)c3ccccc3)C2)C1` [Cpd 17, (3S)-N-{1-[(3′,5′-Dichlorobiphenyl-4-yl)carbonyl]azetidin-3-yl}-1-(phenylcarbonyl)pyrrolidin-3-amine], the “Rat Brain 2AG % VehCntrl (%) @1 μM” value in test [1] is given as 441%. In addition, in test [2], the IC50 was 41 nM.
Take `O=C(c1ccccc1)N1CC[C@H](NC2CN(C(=O)c3cc4cc(OC(F)(F)F)ccc4s3)C2)C1` [Cpd 18, (3S)-1-(Phenylcarbonyl)-N-(1-{[5-(trifluoromethoxy)-1-benzothiophen-2-yl]carbonyl}azetidin-3-yl)pyrrolidin-3-amine]: in test [1], the “Rat Brain 2AG % VehCntrl (%) @1 μM” value is reported as 229%. The figures for the IC50 in test [3] and in test [2] were 17.6 nM and 16.8 nM, respectively.
In the case of `O=C(c1ccccc1)N1CC[C@H](NC2CN(C(=O)c3cc4ccc(C(F)(F)F)cc4s3)C2)C1` [Cpd 20, (3S)-1-(Phenylcarbonyl)-N-(1-{[6-(trifluoromethyl)-1-benzothiophen-2-yl]carbonyl}azetidin-3-yl)pyrrolidin-3-amine], the “Rat Brain 2AG % VehCntrl (%) @1 μM” value in test [1] is given as 304%. Also, the IC50 in test [2] stood at 80.4 nM.
For `O=C(c1ccccc1)N1CC[C@H](NC2CN(C(=O)c3sc4cc(Br)ccc4c3Cl)C2)C1` [Cpd 21, (3S)-N-{1-[(6-Bromo-3-chloro-1-benzothiophen-2-yl)carbonyl]azetidin-3-yl}-1-(phenylcarbonyl)pyrrolidin-3-amine], in that order: 596% and 5 nM.
For `O=C(c1ccc2c(Br)cccc2c1)N1CC(N[C@H]2CCN(C(=O)c3ccccc3)C2)C1` [Cpd 22, (3S)-N-{1-[(5-Bromonaphthalen-2-yl)carbonyl]azetidin-3-yl}-1-(phenylcarbonyl)pyrrolidin-3-amine], in that order: 223% and 33.5 nM.
The corresponding values for `O=C(c1ccc2c(-c3ccccc3)cccc2c1)N1CC(N[C@H]2CCN(C(=O)c3ccccc3)C2)C1` [Cpd 23, (3S)-1-(Phenylcarbonyl)-N-{1-[(5-phenylnaphthalen-2-yl)carbonyl]azetidin-3-yl}pyrrolidin-3-amine] are 293% and 14.9 nM.
For the compound `O=C(c1ccc2c(-c3ccccc3C(F)(F)F)cccc2c1)N1CC(N[C@H]2CCN(C(=O)c3ccccc3)C2)C1` [Cpd 24, (3S)-1-(Phenylcarbonyl)-N-[1-({5-[2-(trifluoromethyl)phenyl]naphthalen-2-yl}carbonyl)azetidin-3-yl]pyrrolidin-3-amine], in test [1], the “Rat Brain 2AG % VehCntrl (%) @1 μM” value turned out to be 706%. Besides, in test [2], the concentration for half-maximal inhibition (IC50) is 8.5 nM.
Take `O=C(c1ccc2c(-c3cccc(C(F)(F)F)c3)cccc2c1)N1CC(N[C@H]2CCN(C(=O)c3ccccc3)C2)C1` [Cpd 25, (3S)-1-(Phenylcarbonyl)-N-[1-({5-[3-(trifluoromethyl)phenyl]naphthalen-2-yl}carbonyl)azetidin-3-yl]pyrrolidin-3-amine]: the “Rat Brain 2AG % VehCntrl (%) @1 μM” value in test [1] came out at 823%. Further, the values for the half-maximal inhibitory concentration (IC50) in test [3] and in test [2] were less than 5 nM and 7 nM, respectively.
As to `O=C(c1ccc2c(c1)Cc1ccccc1-2)N1CC(N[C@H]2CCN(C(=O)c3ccccc3)C2)C1` [Cpd 27, (3S)-N-[1-(9H-Fluoren-2-ylcarbonyl)azetidin-3-yl]-1-(phenylcarbonyl)pyrrolidin-3-amine], the “Rat Brain 2AG % VehCntrl (%) @1 μM” value in test [1] was 125%. The concentration for half-maximal inhibition (IC50) in test [2] was 96.7 nM.
The corresponding values for `O=C(c1ccccc1)N1CC[C@H](NC2CN(C(=O)c3sc4cc(C(F)(F)F)ccc4c3Cl)C2)C1` [Cpd 28, (3S)-N-(1-{[3-Chloro-6-(trifluoromethyl)-1-benzothiophen-2-yl]carbonyl}azetidin-3-yl)-1-(phenylcarbonyl)pyrrolidin-3-amine] are 511% and less than 5 nM.
For `O=C(c1ccc2c(Br)cccc2c1)N1CC(N(O)[C@H]2CCN(C(=O)c3ccccc3)C2)C1` [Cpd 34, (3S)-N-{1-[(5-Bromonaphthalen-2-yl)carbonyl]azetidin-3-yl}-N-hydroxy-1-(phenylcarbonyl)pyrrolidin-3-amine], in that order: 645% and 13.2 nM.
For `Cc1c(C(=O)N2CC(N[C@H]3CCN(C(=O)c4ccccc4)C3)C2)sc2ccc(Cl)cc12` [Cpd 37, (3S)-N-{1-[(5-Chloro-3-methyl-1-benzothiophen-2-yl)carbonyl]azetidin-3-yl}-1-(phenylcarbonyl)pyrrolidin-3-amine], in that order: 381% and 47.7 nM.
For the compound `Cc1c(C(=O)N2CC(N[C@H]3CCN(C(=O)c4ccccc4)C3)C2)sc2ccccc12` [Cpd 68, (3S)-N-{1-[(3-Methyl-1-benzothiophen-2-yl)carbonyl]azetidin-3-yl}-1-(phenylcarbonyl)pyrrolidin-3-amine], the “Rat Brain 2AG % VehCntrl (%) @1 μM” value in test [1] is reported as 161%. Besides, the 50% inhibitory concentration (IC50) in test [2] came out at 84.5 nM.
For `O=C(c1ccccc1)N1CC[C@H](NC2CN(C(=O)c3sc4cc(F)ccc4c3C3CC3)C2)C1` [Cpd 70, (3S)-N-{1-[(3-Cyclopropyl-6-fluoro-1-benzothiophen-2-yl)carbonyl]azetidin-3-yl}-1-(phenylcarbonyl)pyrrolidin-3-amine], in that order: 217% and 25.5 nM.
For `O=C(c1ccc(C(F)(F)c2ccccc2)cc1)N1CC(N[C@H]2CCN(C(=O)c3ccccc3)C2)C1` [Cpd 73, (3S)-N-[1-({4-[Difluoro(phenyl)methyl]phenyl}carbonyl)azetidin-3-yl]-1-(phenylcarbonyl)pyrrolidin-3-amine], in that order: 441% and 15.8 nM.
